The NIST ThermoML archive (doi:10.1021/acs.jced.6b00523)
Where “and” joins values, the source holds several entries; their conditions need not be identical. Equal entries are not always repeated.

Tests used:
[1] = Molar enthalpy of transition or fusion; conditions: DSC
[2] = Closed cell (Static) method
[3] = Solid-liquid equilibrium temperature; conditions: 100 kPa, DTA
[4] = Boiling temperature at pressure P; conditions: 100 kPa; Glass; DTA

O=C(c1ccccc1)c1ccccc1 [benzophenone]
Conditions	Molar enthalpy of transition or fusion, [1] [kcal/mol]	Solid-liquid equilibrium temperature, [3] [K]
Crystal	4.45	321.3
Metastable crystal	3.47	298.3

[2]
Conditions	vapor or sublimation pressure
293.08 K, Crystal	4.2e-05 kPa
293.09 K, Crystal	4.6e-05 kPa
293.1 K, Crystal	4.1e-05 kPa
293.11 K, Metastable liquid	8.1e-05 kPa and 8.4e-05 kPa and 8.5e-05 kPa
296.29 K, Crystal	6.8e-05 kPa and 6.9e-05 kPa
296.3 K, Crystal	6.7e-05 kPa
298.44 K, Crystal	9.2e-05 kPa and 9.3e-05 kPa
298.45 K, Crystal	9e-05 kPa
298.48 K, Metastable liquid	0.000153 kPa and 0.000157 kPa and 0.000158 kPa
300.55 K, Crystal	0.000124 kPa
300.56 K, Crystal	0.000118 kPa and 0.000119 kPa
302.13 K, Metastable liquid	0.000217 kPa and 0.000221 kPa
302.14 K, Metastable liquid	0.000217 kPa
303.2 K, Crystal	0.000168 kPa
303.22 K, Crystal	0.000166 kPa
303.25 K, Crystal	0.000165 kPa
306.93 K, Crystal	0.000263 kPa and 0.000265 kPa and 0.000267 kPa
307.46 K, Metastable liquid	0.000382 kPa
307.48 K, Metastable liquid	0.000376 kPa and 0.00038 kPa
309.05 K, Crystal	0.000338 kPa and 0.00034 kPa and 0.000345 kPa
311.1 K, Crystal	0.000431 kPa and 0.000434 kPa and 0.000435 kPa
312.77 K, Metastable liquid	0.000631 kPa
312.78 K, Metastable liquid	0.000635 kPa and 0.000637 kPa
314.3 K, Crystal	0.000629 kPa and 0.000632 kPa and 0.000635 kPa
317.33 K, Crystal	0.000891 kPa
317.34 K, Crystal	0.000892 kPa and 0.000899 kPa
318.05 K, Metastable liquid	0.001035 kPa and 0.001036 kPa and 0.001039 kPa
319.4 K, Crystal	0.00113 kPa
319.41 K, Crystal	0.001128 kPa and 0.001131 kPa
320.42 K, Crystal	0.001256 kPa and 0.001265 kPa and 0.001267 kPa
320.95 K, Crystal	0.001353 kPa and 0.001356 kPa and 0.001362 kPa
323.33 K, Metastable liquid	0.001658 kPa and 0.00166 kPa and 0.001661 kPa
333.79 K, Liquid	0.003974 kPa and 0.003975 kPa and 0.003979 kPa
338.9 K, Liquid	0.005953 kPa and 0.005954 kPa and 0.005968 kPa
344.09 K, Liquid	0.008882 kPa and 0.00889 kPa and 0.008894 kPa
349.19 K, Liquid	0.0129 kPa and 0.01291 kPa and 0.01293 kPa
354.35 K, Liquid	0.01864 kPa and 0.01865 kPa and 0.01866 kPa
359.4 K, Liquid	0.02628 kPa and 0.02629 kPa and 0.02631 kPa
364.47 K, Liquid	0.03673 kPa
364.48 K, Liquid	0.03672 kPa

Conditions	Boiling temperature at pressure P [°C]
[4]	-61

CCCCCCCCCC [decane]
[2], Liquid
Conditions	vapor or sublimation pressure
276.76 K	0.03526 kPa
276.77 K	0.03527 kPa and 0.03532 kPa
279.78 K	0.0452 kPa
279.79 K	0.04525 kPa
282.92 K	0.0583 kPa and 0.05835 kPa
282.93 K	0.05835 kPa
285.13 K	0.06951 kPa
285.16 K	0.06967 kPa
285.18 K	0.06981 kPa
288.76 K	0.0915 kPa and 0.09155 kPa
288.77 K	0.09159 kPa
292.21 K	0.1188 kPa
292.22 K	0.1188 kPa
294.67 K	0.1405 kPa
301.29 K	0.2229 kPa
301.38 K	0.2242 kPa and 0.2243 kPa
303.84 K	0.2659 kPa
303.85 K	0.266 kPa and 0.2661 kPa
307.33 K	0.3327 kPa and 0.3328 kPa
315.2 K	0.5466 kPa
315.21 K	0.5467 kPa
319.09 K	0.6901 kPa
319.11 K	0.6907 kPa and 0.6909 kPa
320.85 K	0.7646 kPa and 0.7649 kPa and 0.765 kPa
324.98 K	0.9683 kPa
324.99 K	0.9687 kPa
325 K	0.9687 kPa
326.41 K	1.049 kPa
330.79 K	1.33 kPa and 1.331 kPa
330.8 K	1.332 kPa
331.92 K	1.414 kPa
331.93 K	1.415 kPa

[CH]1C=CC=C1.[CH]1C=CC=C1.[Fe] [ferrocene]
[2], Crystal
Conditions	vapor or sublimation pressure
276.97 K	9.4e-05 kPa and 9.7e-05 kPa
276.98 K	0.000101 kPa
282.75 K	0.000181 kPa and 0.000189 kPa
282.76 K	0.000194 kPa
286.28 K	0.000288 kPa
286.29 K	0.000285 kPa
286.31 K	0.000283 kPa
288.24 K	0.000335 kPa and 0.000344 kPa
292.28 K	0.000536 kPa
292.29 K	0.000527 kPa and 0.000529 kPa
293.76 K	0.000622 kPa and 0.000626 kPa and 0.000627 kPa
294.28 K	0.000652 kPa
294.29 K	0.000646 kPa
294.34 K	0.00065 kPa
296.77 K	0.000841 kPa
296.78 K	0.000848 kPa and 0.000858 kPa
299.19 K	0.001072 kPa and 0.001073 kPa and 0.001078 kPa
302.11 K	0.001417 kPa
302.13 K	0.001428 kPa and 0.001429 kPa
303.24 K	0.00162 kPa
303.25 K	0.001618 kPa
304.61 K	0.001809 kPa and 0.001811 kPa and 0.001815 kPa
307.47 K	0.002395 kPa and 0.002397 kPa and 0.002384 kPa
310.03 K	0.003047 kPa and 0.003053 kPa
310.04 K	0.003068 kPa
312.78 K	0.003906 kPa and 0.00391 kPa and 0.003916 kPa
314.08 K	0.00442 kPa and 0.004424 kPa
314.09 K	0.004449 kPa
315.43 K	0.004969 kPa and 0.004971 kPa
318.06 K	0.006287 kPa and 0.006293 kPa and 0.006304 kPa
320.77 K	0.007956 kPa
323.34 K	0.009923 kPa
323.35 K	0.009927 kPa and 0.009932 kPa
324.89 K	0.01134 kPa and 0.01135 kPa
326.09 K	0.01251 kPa and 0.01252 kPa
328.59 K	0.01539 kPa
328.6 K	0.0154 kPa and 0.01541 kPa
331.35 K	0.01928 kPa
331.36 K	0.01929 kPa and 0.0193 kPa
333.86 K	0.02352 kPa
335.51 K	0.02691 kPa and 0.02692 kPa
336.59 K	0.02929 kPa
336.6 K	0.02929 kPa
339.07 K	0.03535 kPa
339.08 K	0.03533 kPa and 0.03537 kPa
341.81 K	0.04367 kPa and 0.04368 kPa and 0.04369 kPa
344.2 K	0.052 kPa
344.21 K	0.05207 kPa and 0.0521 kPa
346.02 K	0.0598 kPa and 0.05982 kPa and 0.05985 kPa
349.36 K	0.07591 kPa
349.37 K	0.07593 kPa and 0.07595 kPa
351.22 K	0.08709 kPa and 0.08711 kPa and 0.08712 kPa
354.37 K	0.1082 kPa
356.27 K	0.1242 kPa
359.5 K	0.1538 kPa
359.51 K	0.1539 kPa
362.73 K	0.1914 kPa and 0.1916 kPa
366.77 K	0.2492 kPa and 0.2493 kPa and 0.2494 kPa

c1ccc2ccccc2c1 [naphthalene]
[2]
Conditions	vapor or sublimation pressure
276.72 K, Crystal	0.001118 kPa
276.73 K, Crystal	0.001122 kPa
276.74 K, Crystal	0.001118 kPa
280.12 K, Crystal	0.001625 kPa
280.15 K, Crystal	0.001634 kPa
280.17 K, Crystal	0.001644 kPa
283.27 K, Crystal	0.002321 kPa and 0.002329 kPa and 0.002333 kPa
286.33 K, Crystal	0.003264 kPa and 0.003275 kPa
286.34 K, Crystal	0.003276 kPa
289.39 K, Crystal	0.004482 kPa and 0.004484 kPa and 0.004493 kPa
292 K, Crystal	0.005885 kPa and 0.005899 kPa and 0.005902 kPa
292.04 K, Crystal	0.005878 kPa
292.05 K, Crystal	0.005881 kPa and 0.005889 kPa
293.36 K, Crystal	0.006861 kPa
293.38 K, Crystal	0.006881 kPa
293.4 K, Crystal	0.006871 kPa
294.91 K, Crystal	0.007907 kPa
294.94 K, Crystal	0.007905 kPa
294.96 K, Crystal	0.007922 kPa
296.91 K, Crystal	0.009768 kPa and 0.009773 kPa
296.92 K, Crystal	0.009786 kPa
297.67 K, Crystal	0.01039 kPa and 0.0104 kPa
297.68 K, Crystal	0.01041 kPa
300.93 K, Crystal	0.01426 kPa
300.95 K, Crystal	0.01427 kPa and 0.01428 kPa
302.6 K, Crystal	0.01691 kPa and 0.01696 kPa
303.67 K, Crystal	0.01833 kPa and 0.01835 kPa
306.52 K, Crystal	0.02413 kPa
306.6 K, Crystal	0.02433 kPa
306.65 K, Crystal	0.02446 kPa
308.22 K, Crystal	0.02835 kPa and 0.02834 kPa
312.83 K, Crystal	0.04277 kPa
312.84 K, Crystal	0.04281 kPa
312.85 K, Crystal	0.04282 kPa
313.85 K, Crystal	0.04691 kPa
315.09 K, Crystal	0.05173 kPa and 0.05174 kPa
317.19 K, Crystal	0.06259 kPa and 0.06261 kPa and 0.06262 kPa
319.43 K, Crystal	0.07588 kPa and 0.07592 kPa
324.1 K, Crystal	0.1124 kPa
324.99 K, Crystal	0.1206 kPa
325 K, Crystal	0.1206 kPa
325.01 K, Crystal	0.1206 kPa
326.36 K, Crystal	0.1338 kPa
326.37 K, Crystal	0.1338 kPa
328.22 K, Crystal	0.1567 kPa
330.59 K, Crystal	0.1886 kPa
330.6 K, Crystal	0.1887 kPa
335.27 K, Crystal	0.2723 kPa
335.28 K, Crystal	0.2726 kPa
335.31 K, Crystal	0.2732 kPa
336.07 K, Crystal	0.288 kPa and 0.2881 kPa
337.45 K, Crystal	0.3184 kPa
337.46 K, Crystal	0.3185 kPa
339.09 K, Crystal	0.3626 kPa and 0.3628 kPa and 0.3624 kPa
341.45 K, Crystal	0.4305 kPa
341.46 K, Crystal	0.4306 kPa
346.83 K, Crystal	0.6347 kPa
346.84 K, Crystal	0.6347 kPa
348.58 K, Crystal	0.7143 kPa and 0.7145 kPa and 0.7148 kPa
352.18 K, Crystal	0.9195 kPa and 0.9196 kPa
355.35 K, Liquid	1.098 kPa
358.34 K, Liquid	1.266 kPa
358.36 K, Liquid	1.267 kPa
358.38 K, Liquid	1.269 kPa
